Laboratory results as given in ChEMBL document CHEMBL4828726, “Modification of 5-methylphenanthridium from benzothiazoles to indoles as potent FtsZ inhibitors: Broadening the antibacterial spectrum toward vancomycin-resistant enterococci” (Eur J Med Chem, 2021).
Calls of active or inactive are those of the source. The calls are words filed in the database; no cut-off is given here.

What was measured:
Staphylococcus aureus [1] = experiment: Antibacterial activity against Staphylococcus aureus ATCC 25923 assessed as fold increase in MIC value measured after 15 passages by Multi passage resistance assay; assay type: functional
Staphylococcus aureus [2] = experiment: Antibacterial activity against Staphylococcus aureus ATCC 25923 assessed as fold increase in MIC value measured after 1 passage by Multi passage resistance assay; assay type: functional
Staphylococcus aureus [3] = experiment: Bactericidal activity against methicillin-resistant Staphylococcus aureus ATCC43300 assessed as inhibition of bacterial growth measured after 20 hrs by two-fold microdilution assay; assay type: functional
Staphylococcus aureus [4] = experiment: Ratio of MBC to MIC against methicilline-resistant Staphylococcus aureus ATCC43300; assay type: functional
Bacillus subtilis [5] = experiment: Ratio of MBC to MIC against penicillin-susceptible Bacillus subtilis ATCC 9372; assay type: functional
Staphylococcus aureus [6] = experiment: Ratio of MBC to MIC against erythromycin-susceptible Staphylococcus aureus ATCC 25923; assay type: functional
[7] = system: Staphylococcus epidermidis; experiment: Antibacterial activity against penicillin-resistant Staphylococcus epidermidis assessed as inhibition of bacterial growth measured after 20 hrs by two-fold microdilution assay; assay type: functional
[8] = Hemolytic activity against mouse RBC at 1 to 16 ug/ml measured after 1 hr by hemolysis assay relative to Triton X-100; assay type: ADME, cell-based, Erythrocyte; conditions: mouse red blood cells (erythrocytes), at 1 to 16 µg/mL, dose 1-16 µg/ml, read-out: Activity
Staphylococcus aureus [9] = experiment: Bactericidal activity against erythromycin-susceptible Staphylococcus aureus ATCC 25923 assessed as inhibition of bacterial growth measured after 20 hrs by two-fold microdilution assay; assay type: functional
Staphylococcus aureus [10] = experiment: Antibacterial activity against erythromycin-susceptible Staphylococcus aureus ATCC 25923 assessed as inhibition of bacterial growth measured after 20 hrs by two-fold microdilution assay; assay type: functional
Enterococcus faecalis [11] = experiment: Antibacterial activity against Vancomycin-resistant Enterococcus faecalis ATCC 51299 assessed as inhibition of bacterial growth measured after 20 hrs by two-fold microdilution assay; assay type: functional
Pseudomonas aeruginosa [12] = experiment: Antibacterial activity against penicillin-susceptible Pseudomonas aeruginosa ATCC 27853 assessed as inhibition of bacterial growth measured after 20 hrs by two-fold microdilution assay; assay type: functional
Staphylococcus aureus [13] = experiment: Antibacterial activity against methicillin-resistant Staphylococcus aureus ATCC43300 assessed as inhibition of bacterial growth measured after 20 hrs by two-fold microdilution assay; assay type: functional
Streptococcus pyogenes [14] = experiment: Antibacterial activity against erythromycin-susceptible Streptococcus pyogenes assessed as inhibition of bacterial growth measured after 20 hrs by two-fold microdilution assay; assay type: functional
Staphylococcus aureus [15] = experiment: Bactericidal activity against penicillin-resistant Staphylococcus aureus ATCC 31007 assessed as inhibition of bacterial growth measured after 20 hrs by two-fold microdilution assay; assay type: functional
Staphylococcus aureus [16] = experiment: Antibacterial activity against penicillin-resistant Staphylococcus aureus ATCC 31007 assessed as inhibition of bacterial growth measured after 20 hrs by two-fold microdilution assay; assay type: functional
Staphylococcus aureus [17] = experiment: Antibacterial activity against Staphylococcus aureus ATCC 25923 assessed as fold increase in MIC value measured after 10 passages by Multi passage resistance assay; assay type: functional, organism-based
Staphylococcus aureus [18] = experiment: Antibacterial activity against Staphylococcus aureus ATCC 25923 assessed as fold change in MIC value measured after 14 passages by Multi passage resistance assay; assay type: functional, organism-based
Enterococcus faecalis [19] = experiment: Antibacterial activity against Vancomycin-susceptible Enterococcus faecalis ATCC 29212 assessed as inhibition of bacterial growth measured after 20 hrs by two-fold microdilution assay; assay type: functional
Staphylococcus aureus [20] = experiment: Antibacterial activity against Staphylococcus aureus ATCC 25923 assessed as reduction of colony forming units at 32 ug/ml measured up to 24 hrs by Time kill assay; assay type: functional; set-up: scale not given: the % may be the effect or the level left; conditions: dose 32 µg/ml; time hrs <=24
Pseudomonas aeruginosa [21] = experiment: Anti-biofilm activity against Pseudomonas aeruginosa ATCC 27853 assessed as inhibition of biofilm formation at 4 to 64 ug/ml measured after 20 hrs by crystal violet staining based biofilm formation inhibition assay; assay type: functional, organism-based; conditions: dose 4-64 µg/ml
Bacillus pumilus [22] = experiment: Antibacterial activity against penicillin-susceptible Bacillus pumilus CMCC63202 assessed as inhibition of bacterial growth measured after 20 hrs by two-fold microdilution assay; assay type: functional
Staphylococcus aureus [23] = experiment: Antibacterial activity against clinical isolate Staphylococcus aureus C1 assessed as inhibition of bacterial growth measured after 20 hrs by two-fold microdilution assay; assay type: functional
Bacillus pumilus [24] = experiment: Bactericidal activity against penicillin-susceptible Bacillus pumilus CMCC63202 assessed as inhibition of bacterial growth measured after 20 hrs by two-fold microdilution assay; assay type: functional
Staphylococcus aureus [25] = experiment: Antibacterial activity against Staphylococcus aureus ATCC 25923 assessed as decrease of bacterial growth measured up to 24 hrs by Time kill assay; assay type: functional, organism-based; conditions: dose 4-32 µg/ml, time hrs <=24
Enterococcus faecium [26] = experiment: Antibacterial activity against Vancomycin-resistant Enterococcus faecium ATCC 51559 assessed as inhibition of bacterial growth measured after 20 hrs by two-fold microdilution assay; assay type: functional
Enterococcus faecium [27] = experiment: Antibacterial activity against Vancomycin-susceptible Enterococcus faecium ATCC 19434 assessed as inhibition of bacterial growth measured after 20 hrs by two-fold microdilution assay; assay type: functional
Bacillus subtilis [28] = experiment: Antibacterial activity against penicillin-susceptible Bacillus subtilis ATCC 9372 assessed as inhibition of bacterial growth measured after 20 hrs by two-fold microdilution assay; assay type: functional
Bacillus subtilis [29] = experiment: Bactericidal activity against penicillin-susceptible Bacillus subtilis ATCC 9372 assessed as inhibition of bacterial growth measured after 20 hrs by two-fold microdilution assay; assay type: functional
Streptococcus pyogenes [30] = experiment: Antibacterial activity against erythromycin-resistant Streptococcus pyogenes assessed as inhibition of bacterial growth measured after 20 hrs by two-fold microdilution assay; assay type: functional
Escherichia coli = experiment: Antibacterial activity against penicillin-susceptible Escherichia coli ATCC 25922 assessed as inhibition of bacterial growth measured after 20 hrs by two-fold microdilution assay; assay type: functional

In the case of `CO[C@H]1/C=C/O[C@@]2(C)Oc3c(C)c(O)c4c(O)c(c(/C=N/N5CCN(C)CC5)c(O)c4c3C2=O)NC(=O)/C(C)=C\C=C\[C@H](C)[C@H](O)[C@@H](C)[C@@H](O)[C@@H](C)[C@H](OC(C)=O)[C@@H]1C` [RIFAMPIN], the “fold change (FC)” value (Staphylococcus aureus [1]) is reported as over 16000 and the “fold change (FC)” value (Staphylococcus aureus [2]) is reported as 8.

With `CCCCn1ccc2ccc(-c3ccc4c(c3)c3c(C)cccc3c[n+]4C)cc21.[Cl-]` the MBC (Staphylococcus aureus [3]) was 64 µg/mL, the Ratio (Staphylococcus aureus [4]) was 8 and the Ratio (Bacillus subtilis [5]) was 2. For the same compound, the Ratio (Staphylococcus aureus [6]) was 16, the MIC [7] was 16 µg/mL and the hemolysis at 1 h [8] was under 8%. It also gave an MBC (Staphylococcus aureus [9]) of 16 µg/mL, an MIC (Staphylococcus aureus [10]) of 1 µg/mL and an MIC (Enterococcus faecalis [11]) of 16 µg/mL. The MIC (Pseudomonas aeruginosa [12]) was over 64 µg/mL, the MIC (Staphylococcus aureus [13]) was 8 µg/mL and the MIC (Streptococcus pyogenes [14]) was 16 µg/mL. The MBC (Staphylococcus aureus [15]) was over 64 µg/mL, the “fold change (FC)” value (Staphylococcus aureus [2]) was 4 and the MIC (Staphylococcus aureus [16]) was 8 µg/mL. For the same compound, the Activity (Staphylococcus aureus [17]) was “Active”, the Activity (Staphylococcus aureus [18]) was “Active” and the MIC (Enterococcus faecalis [19]) was 8 µg/mL. For the same compound, the Activity (Staphylococcus aureus [20]) was over 99.9%, the Activity (Pseudomonas aeruginosa [21]) was “inactive” and the MIC (Bacillus pumilus [22]) was 8 µg/mL. The MIC (Staphylococcus aureus [23]) was 4 µg/mL, the MBC (Bacillus pumilus [24]) was over 64 µg/mL and the Activity (Staphylococcus aureus [25]) was “Dose-Dependent Effect”. The MIC (Enterococcus faecium [26]) was 8 µg/mL, the MIC (Enterococcus faecium [27]) was 8 µg/mL and the MIC (Bacillus subtilis [28]) was 4 µg/mL. The MBC (Bacillus subtilis [29]) was 8 µg/mL, the MIC (Streptococcus pyogenes [30]) was 16 µg/mL and the MIC (Escherichia coli) was over 64 µg/mL.
